Experimental data reported in ChEMBL document CHEMBL1159225, “Oceanapamine, a sesquiterpene alkaloid from the Philippine sponge Oceanapia sp” (J Nat Prod, 1995).
Calls of active or inactive are those of the source. The rule behind the calls is not given here.

Key:
Assay type in all cases: functional, organism-based
Staphylococcus aureus = experiment: Antimicrobial activity against Staphylococcus aureus at 50 ug/disk by standard disk assay
Escherichia coli = experiment: Antimicrobial activity against Escherichia coli at 25 ug/disk by standard disk assay
Candida albicans = experiment: Antifungal activity against Candida albicans at 50 ug/disk by standard disk assay
Pseudomonas aeruginosa = experiment: Antimicrobial activity against Pseudomonas aeruginosa at 100 ug/disk by standard disk assay
Bacillus subtilis = experiment: Antimicrobial activity against Bacillus subtilis at 25 ug/disk by standard disk assay

Row | Compound | Activity (Staphylococcus aureus) | Activity (Escherichia coli) | Activity (Candida albicans) | Activity (Pseudomonas aeruginosa) | Activity (Bacillus subtilis)
1 | C=C1CCCC(C)(C)[C@H]1CC/C(C)=C/Cc1ncn2c1CCNC2=O | inactive | inactive | inactive | inactive | inactive
2 | C=C1CCCC(C)(C)[C@H]1CC/C(C)=C/Cc1nc[nH]c1CCN | Active | Active | Active | Active | Active
